{"source": "patent US20120010206A1", "about": "“IMIDAZOLOPYRIDINE COMPOUNDS USEFUL FOR THE TREATMENT OF DEGENERATIVE AND INFLAMMATORY DISEASES” (priority 2006, published 2012)", "key": {"TAK1-TAB1 fusion protein": {"biological_target": "T1, TAK1-TAB1 fusion protein (Homo sapiens, UniProt O43318)", "T1 construct": "purchased Upstate 14-600", "T1 sequence (O43318 with tags, fused parts or gaps limits assumed)": "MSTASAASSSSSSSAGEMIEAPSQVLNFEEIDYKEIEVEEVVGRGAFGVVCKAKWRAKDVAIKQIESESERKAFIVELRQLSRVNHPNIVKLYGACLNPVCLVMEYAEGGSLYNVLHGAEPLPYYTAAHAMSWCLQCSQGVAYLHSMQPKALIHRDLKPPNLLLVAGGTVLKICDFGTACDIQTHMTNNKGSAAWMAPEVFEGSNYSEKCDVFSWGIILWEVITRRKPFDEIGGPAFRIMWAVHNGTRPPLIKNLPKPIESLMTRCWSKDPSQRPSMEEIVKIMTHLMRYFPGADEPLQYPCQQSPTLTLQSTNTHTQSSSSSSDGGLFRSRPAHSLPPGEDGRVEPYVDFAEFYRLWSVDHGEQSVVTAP", "experiment": "In vitro TAK1 kinase assay (33P-ATP, casein substrate)", "assay_type": "biochemical", "settings": "semi-quantitative score, at least two independent experiments", "outline": "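Radiometric assay with active TAK1-TAB1 fusion protein (0.5 mU), 0.1 mg/mL casein, ATP at 5 µM plus [33P]-γ-ATP, in 10 mM MOPS pH 7.0, 1 mM EDTA. Reactions ran 90 min at 30 °C, were stopped with phosphoric acid and filter-counted; percent inhibition from ≥2 experiments gave semi-quantitative potency scores.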"}, "[1]": {"test_system": "MMP1 expression from activated SFs (RASF)", "experiment": "MMP assay: MMP1 expression (ELISA) by TNF-α-triggered RASFs", "assay_type": "cell-based", "settings": "RASF triggered with TNFα, MMP1 ELISA after 48 hrs, semi-quantitative score", "outline": "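Rheumatoid arthritis synovial fibroblasts (passage 10–12) were preincubated 90 min with compound in M199 with 1% FBS, then stimulated with TNF-α (10 ng/mL final) or complex trigger (12.5% final) for 48 h. MMP1 in the supernatant was quantified by sandwich luminescence ELISA. Controls were stimulated cells with 0.2% DMSO vehicle and unstimulated cells.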"}}, "data": [{"smiles": "O=C(NCCN1CCCC1)c1ccc(Nc2ccc(-c3ccc4c(c3)CNC4=O)n3ccnc23)cc1", "note": "[Compound 34, 4-(5-(1-oxoisoindolin-5-yl)imidazo[1,2-a]pyridin-8-ylamino)-N-(2-(pyrrolidin-1-yl)ethyl)benzamide]", "values": [{"measurement": "IC50", "setting": "TAK1-TAB1 fusion protein", "result": "< 100", "unit": "nM"}, {"measurement": "EC50", "setting": "[1]", "result": "> 3000", "unit": "nM"}]}, {"smiles": "c1cn2c(-c3cn[nH]c3)ccc(Nc3ccc(N4CCSCC4)cc3)c2n1", "note": "[Compound 111, [5-(1H-Pyrazol-4-yl)-imidazo[1,2-a]pyridin-8-yl]-(4-thiomorpholin-4-yl-phenyl)-amine]", "values": [{"measurement": "IC50", "setting": "TAK1-TAB1 fusion protein", "result": "1000 to 3000", "unit": "nM"}, {"measurement": "EC50", "setting": "[1]", "result": "101 to 1000", "unit": "nM"}]}, {"smiles": "CN1CCN(c2ccc(Nc3ccc(-c4ccc(C(N)=O)cc4)n4ccnc34)cc2)CC1", "note": "[Compound 3, 4-{8-[4-(4-Methyl-piperazin-1-yl)-phenylamino]-imidazo[1,2-a]pyridin-5-yl}-benzamide]", "values": [{"measurement": "IC50", "setting": "TAK1-TAB1 fusion protein", "result": "101 to 1000", "unit": "nM"}, {"measurement": "EC50", "setting": "[1]", "result": "< 100", "unit": "nM"}]}, {"smiles": "FC(F)CN1CCN(c2ccc(Nc3ccc(-c4cn[nH]c4)n4ccnc34)cc2)CC1", "note": "[Compound 109, {4-[4-(2,2-Difluoro-ethyl)-piperazin-1-yl]-phenyl}-[5-(1H-pyrazol-4-yl)-imidazo[1,2-a]pyridin-8-yl]-amine]", "values": [{"measurement": "IC50", "setting": "TAK1-TAB1 fusion protein", "result": "1000 to 3000", "unit": "nM"}, {"measurement": "EC50", "setting": "[1]", "result": "101 to 1000", "unit": "nM"}]}, {"smiles": "CC(C)N1CCN(c2ccc(Nc3ccc(-c4cn[nH]c4)n4ccnc34)cc2)CC1", "note": "[Compound 6, [4-(4-Isopropyl-piperazin-1-yl)-phenyl]-[5-(1H-pyrazol-4-yl)-imidazo[1,2-a]pyridin-8-yl]-amine]", "values": [{"measurement": "IC50", "setting": "TAK1-TAB1 fusion protein", "result": "101 to 1000", "unit": "nM"}, {"measurement": "EC50", "setting": "[1]", "result": "101 to 1000", "unit": "nM"}]}, {"smiles": "CCN(C)CCN(CC)C(=O)c1ccc(Nc2ccc(-c3ccc4c(c3)CNC4=O)n3ccnc23)cc1", "note": "[Compound 47, N-ethyl-N-(2-(ethyl(methyl)amino)ethyl)-4-(5-(1-oxoisoindolin-5-yl)imidazo[1,2-a]pyridin-8-ylamino)benzamide]", "values": [{"measurement": "IC50", "setting": "TAK1-TAB1 fusion protein", "result": "< 100", "unit": "nM"}, {"measurement": "EC50", "setting": "[1]", "result": "> 3000", "unit": "nM"}]}, {"smiles": "O=C1NCc2cc(-c3ccc(Nc4ccc(S(=O)(=O)N5CCOCC5)cc4)c4nccn34)ccc21", "note": "[Compound 16, 5-(8-(4-(morpholinosulfonyl)phenylamino)imidazo[1,2-a]pyridin-5-yl)isoindolin-1-one]", "values": [{"measurement": "IC50", "setting": "TAK1-TAB1 fusion protein", "result": "101 to 1000", "unit": "nM"}, {"measurement": "EC50", "setting": "[1]", "result": "> 3000", "unit": "nM"}]}, {"smiles": "COCCN(C)C(=O)c1ccc(Nc2ccc(-c3ccc4c(c3)CNC4=O)n3ccnc23)cc1", "note": "[Compound 38, N-(2-methoxyethyl)-N-methyl-4-(5-(1-oxoisoindolin-5-yl)imidazo[1,2-a]pyridin-8-ylamino)benzamide]", "values": [{"measurement": "IC50", "setting": "TAK1-TAB1 fusion protein", "result": "101 to 1000", "unit": "nM"}, {"measurement": "EC50", "setting": "[1]", "result": "> 3000", "unit": "nM"}]}, {"smiles": "CC(C)N1CCC(c2ccc(Nc3ccc(-c4ccc5c(c4)CNC5=O)n4ccnc34)cc2)CC1", "note": "[Compound 19, 5-(8-(4-(1-isopropyl-piperidin-4-yl)phenylamino)imidazo[1,2-a]pyridin-5-yl)isoindolin-1-one]", "values": [{"measurement": "IC50", "setting": "TAK1-TAB1 fusion protein", "result": "< 100", "unit": "nM"}, {"measurement": "EC50", "setting": "[1]", "result": "101 to 1000", "unit": "nM"}]}, {"smiles": "CCN(CC)CCNS(=O)(=O)c1ccc(Nc2ccc(-c3ccc4c(c3)CNC4=O)n3ccnc23)cc1", "note": "[Compound 22, N-(2-(diethylamino)ethyl)-4-(5-(1-oxoisoindolin-5-yl)imidazo[1,2-a]pyridin-8-ylamino)benzene sulfonamide]", "values": [{"measurement": "IC50", "setting": "TAK1-TAB1 fusion protein", "result": "101 to 1000", "unit": "nM"}, {"measurement": "EC50", "setting": "[1]", "result": "1000 to 3000", "unit": "nM"}]}, {"smiles": "O=C(NCCN1CCOCC1)c1ccc(Nc2ccc(-c3ccc4c(c3)CNC4=O)n3ccnc23)cc1", "note": "[Compound 43, N-(2-morpholinoethyl)-4-(5-(1-oxoisoindolin-5-yl)imidazo[1,2-a]pyridin-8-ylamino)benzamide]", "values": [{"measurement": "IC50", "setting": "TAK1-TAB1 fusion protein", "result": "101 to 1000", "unit": "nM"}, {"measurement": "EC50", "setting": "[1]", "result": "> 3000", "unit": "nM"}]}, {"smiles": "CNS(=O)(=O)c1ccc(Nc2ccc(-c3ccc4c(c3)CNC4=O)n3ccnc23)cc1", "note": "[Compound 24, N-methyl-4-(5-(1-oxoisoindolin-5-yl)imidazo[1,2-a]pyridin-8-ylamino)benzene sulfonamide]", "values": [{"measurement": "IC50", "setting": "TAK1-TAB1 fusion protein", "result": "101 to 1000", "unit": "nM"}, {"measurement": "EC50", "setting": "[1]", "result": "1000 to 3000", "unit": "nM"}]}, {"smiles": "O=C1NCc2cc(-c3ccc(Nc4ccc(S(=O)(=O)c5ccccc5)cc4)c4nccn34)ccc21", "note": "[Compound 21, 5-(8-(4-(phenylsulfonyl)phenylamino)imi-dazo[1,2-a]pyridin-5-yl)isoindolin-1-one]", "values": [{"measurement": "IC50", "setting": "TAK1-TAB1 fusion protein", "result": "101 to 1000", "unit": "nM"}, {"measurement": "EC50", "setting": "[1]", "result": "101 to 1000", "unit": "nM"}]}, {"smiles": "CC(C)N1CCN(c2ccc(Nc3ccc(-c4ccc5c(c4)CNC5=O)n4ccnc34)cc2)CC1", "note": "[Compound 12, 5-{8-[4-(4-Isopropyl-piperazin-1-yl)-phenylamino]-imidazo[1,2-a]pyridin-5-yl}-2,3-dihydro-isoindol-1-one]", "values": [{"measurement": "IC50", "setting": "TAK1-TAB1 fusion protein", "result": "< 100", "unit": "nM"}, {"measurement": "EC50", "setting": "[1]", "result": "101 to 1000", "unit": "nM"}]}, {"smiles": "CC(C)N1CCN(c2ccc(Nc3ccc(-c4cc[nH]c(=O)c4)n4ccnc34)cc2)CC1", "note": "[Compound 74]", "values": [{"measurement": "IC50", "setting": "TAK1-TAB1 fusion protein", "result": "< 100", "unit": "nM"}, {"measurement": "EC50", "setting": "[1]", "result": "101 to 1000", "unit": "nM"}]}, {"smiles": "CS(=O)(=O)c1ccc(Nc2ccc(-c3ccc4c(c3)CNC4=O)n3ccnc23)cc1", "note": "[Compound 18, 5-(8-(4-(methylsulfonyl)phenylamino)imi-dazo[1,2-a]pyridin-5-yl)isoindolin-1-one]", "values": [{"measurement": "IC50", "setting": "TAK1-TAB1 fusion protein", "result": "101 to 1000", "unit": "nM"}, {"measurement": "EC50", "setting": "[1]", "result": "> 3000", "unit": "nM"}]}, {"smiles": "CCC(CC)N1CCN(c2ccc(Nc3ccc(-c4cc[nH]c(=O)c4)n4ccnc34)cc2)CC1", "note": "[Compound 87]", "values": [{"measurement": "IC50", "setting": "TAK1-TAB1 fusion protein", "result": "101 to 1000", "unit": "nM"}, {"measurement": "EC50", "setting": "[1]", "result": "101 to 1000", "unit": "nM"}]}, {"smiles": "CC(C)N1CCN(c2ccc(Nc3ccc(-c4cc[nH]c(=O)c4)n4ccnc34)cc2C(F)(F)F)CC1", "note": "[Compound 106, 4-{8-[4-(4-Isopropyl-piperazin-1-yl)-3-trifluoromethyl-phenylamino]-imidazo[1,2-a]pyridin-5-yl}-1H-pyridin-2-one]", "values": [{"measurement": "IC50", "setting": "TAK1-TAB1 fusion protein", "result": "> 3000", "unit": "nM"}, {"measurement": "EC50", "setting": "[1]", "result": "101 to 1000", "unit": "nM"}]}, {"smiles": "CC(C)N1CCN(c2ccc(Nc3ccc(-c4cccc(O)c4)n4ccnc34)cc2)CC1", "note": "[Compound 94]", "values": [{"measurement": "IC50", "setting": "TAK1-TAB1 fusion protein", "result": "> 3000", "unit": "nM"}, {"measurement": "EC50", "setting": "[1]", "result": "> 3000", "unit": "nM"}]}, {"smiles": "O=C1NCc2cc(-c3ccc(Nc4ccc(S(=O)(=O)NC5CCNC5)cc4)c4nccn34)ccc21", "note": "(centres unmarked) [Compound 32, 4-(5-(1-oxoisoindolin-5-yl)imidazo[1,2-a]pyridin-8-ylamino)-N-(pyrrolidin-3-yl)benzene sulfonamide]", "values": [{"measurement": "IC50", "setting": "TAK1-TAB1 fusion protein", "result": "101 to 1000", "unit": "nM"}, {"measurement": "EC50", "setting": "[1]", "result": "> 3000", "unit": "nM"}]}, {"smiles": "O=c1cc(-c2ccc(Nc3ccc(N4CCOCC4)cc3)c3nccn23)cc[nH]1", "note": "[Compound 68]", "values": [{"measurement": "IC50", "setting": "TAK1-TAB1 fusion protein", "result": "101 to 1000", "unit": "nM"}, {"measurement": "EC50", "setting": "[1]", "result": "101 to 1000", "unit": "nM"}]}, {"smiles": "CN(C)CCNC(=O)c1ccc(Nc2ccc(-c3ccc4c(c3)CNC4=O)n3ccnc23)cc1", "note": "[Compound 36, N-(2-(dimethylamino)ethyl)-4-(5-(1-oxoisoindolin-5-yl)imidazo[1,2-a]pyridin-8-ylamino)benzamide]", "values": [{"measurement": "IC50", "setting": "TAK1-TAB1 fusion protein", "result": "101 to 1000", "unit": "nM"}, {"measurement": "EC50", "setting": "[1]", "result": "> 3000", "unit": "nM"}]}, {"smiles": "CS(=O)(=O)c1ccc(Nc2ccc(-c3cc[nH]c(=O)c3)n3ccnc23)cc1", "note": "[Compound 64]", "values": [{"measurement": "IC50", "setting": "TAK1-TAB1 fusion protein", "result": "101 to 1000", "unit": "nM"}, {"measurement": "EC50", "setting": "[1]", "result": "1000 to 3000", "unit": "nM"}]}, {"smiles": "CCCN1CCN(c2ccc(Nc3ccc(-c4ccc(C(N)=O)cc4)n4ccnc34)cc2)CC1", "note": "[Compound 76]", "values": [{"measurement": "IC50", "setting": "TAK1-TAB1 fusion protein", "result": "101 to 1000", "unit": "nM"}, {"measurement": "EC50", "setting": "[1]", "result": "101 to 1000", "unit": "nM"}]}, {"smiles": "O=c1cc(-c2ccc(Nc3ccc(N4CCN(C5CC5)CC4)cc3)c3nccn23)cc[nH]1", "note": "[Compound 88]", "values": [{"measurement": "IC50", "setting": "TAK1-TAB1 fusion protein", "result": "1000 to 3000", "unit": "nM"}, {"measurement": "EC50", "setting": "[1]", "result": "1000 to 3000", "unit": "nM"}]}]}
